What follows are molecules tested against T1, human CTPS1 (Homo sapiens, UniProt P17812) (assay: Human CTPS1 enzyme inhibition (ADP-Glo Max assay)). Details: Table 23; ADP-Glo Max assay; read-out: CTPS1 (Human CTPS1 Enzyme Inhibition data grouped by potency range, IC50).
T1 construct: purchased Proteros biostructures GmbH
T1 sequence (P17812 1-591): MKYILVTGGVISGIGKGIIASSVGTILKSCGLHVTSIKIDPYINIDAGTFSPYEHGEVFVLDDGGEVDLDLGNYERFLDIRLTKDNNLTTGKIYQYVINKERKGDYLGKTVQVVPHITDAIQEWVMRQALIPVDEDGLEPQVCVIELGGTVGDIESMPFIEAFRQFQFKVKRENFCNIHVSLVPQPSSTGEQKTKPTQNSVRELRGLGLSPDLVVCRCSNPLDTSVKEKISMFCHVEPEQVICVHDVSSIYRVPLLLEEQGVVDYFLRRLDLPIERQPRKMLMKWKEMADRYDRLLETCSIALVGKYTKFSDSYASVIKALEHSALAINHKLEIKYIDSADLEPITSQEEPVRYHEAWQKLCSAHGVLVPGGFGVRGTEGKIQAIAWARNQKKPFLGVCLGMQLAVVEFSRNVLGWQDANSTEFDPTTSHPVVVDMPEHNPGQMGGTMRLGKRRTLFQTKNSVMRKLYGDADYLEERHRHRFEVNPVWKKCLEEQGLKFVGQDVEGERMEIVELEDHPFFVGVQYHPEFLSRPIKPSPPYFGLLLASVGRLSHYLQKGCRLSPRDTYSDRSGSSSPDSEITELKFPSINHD
Assay type: biochemical
Method: Biological Example 1—Human CTPS1 Enzyme Inhibition
The enzyme inhibitory activities of compounds invented against the target of interest were determined using the ADP-Glo™ Max assay (Promega, UK). Assays for human CTPS1 were performed in 1× assay buffer containing 50 mM Tris, 10 mM MgCl2, 0.01% Tween-20, pH to 8.0 accordingly. Finally, immediately before use, L-cysteine was added to the 1× assay buffer to a final concentration of 2 mM. All reagents are from Sigma-Aldrich unless specified otherwise. Human full length active C-terminal FLAG-Hiss-tag CTPS1 (UniProtKB-P17812, CTPS[1-591]-[…]) was obtained from Proteros biostructures GmbH.
3× human CTPS1 protein was prepared in 1× assay buffer to the final working protein concentration required for the reaction. A 2 uL volume per well of 3× human CTPS1 protein was mixed with 2 uL per well of 3× test compound (compound prepared in 1× assay buffer to an appropriate final 3× compound concentration respective to the concentration response curve designed for the compounds under test) for 10 minutes at 25° C. The enzymatic reaction was then initiated by addition of a 2 uL per well volume of a pre-mixed substrate mix (UltraPure ATP from ADP-Glo™ Max kit (0.31 mM), GTP (0.034 mM), UTP (0.48 mM) and L-glutamine (0.186 mM)) and the mixture was incubated for an appropriate amount of time within the determined linear phase of the reaction at 25° C. under sealed plate conditions with constant agitation at 500 revolutions per minute (rpm). ADP-Glo™ Max reagent was added for 60 minutes (6 μL per well) and subsequently ADP-Glo™ Max development reagent was added for 60 minutes (12 uL per well) prior to signal detection in a microplate reader (EnVision® Multilabel Reader, Perkin Elmer). Following each reagent addition over the course of the assay, assay plates were pulse centrifuged for 30 seconds at 500 rpm.
In all cases, the enzyme converts ATP to ADP and the ADP-Glo™ Max reagent subsequently depletes any remaining endogenous ATP in the reaction system. The ADP-Glo™ Max detection reagent converts the ADP that has been enzymatically produced back into ATP and using ATP as a substrate together with luciferin for the enzyme luciferase, light is generated which produces a detectable luminescence. […] The percentage inhibition produced by each concentration of compound was calculated using the equation shown below: […]
Percentage inhibition was then plotted against compound concentration, and the 50% inhibitory concentration (IC50) was determined from the resultant concentration-response curve.

| SMILES | IC50 |
| --- | --- |
| CCOc1cncc(-c2cc(OC)c(NC(=O)C(C)(C)c3ccnc(NS(=O)(=O)C4CC4)n3)cc2F)n1 [Example P48] | 100 to 1000 nM |
| CC(C)(C(=O)Nc1ccc(-c2cncc(C(F)(F)F)c2)cc1)c1ccnc(NS(=O)(=O)C2CC2)n1 [Example P4, 2-(2-(Cyclopropanesulfonamido)pyrimidin-4-yl)-2-methyl-N-(4-(5-(trifluoromethyl)pyridin-3-yl)phenyl)propanamide] | 100 to 1000 nM |
| CCC(F)(C(=O)Nc1ccc(-c2cncc(Cl)c2)cn1)c1ccnc(NS(=O)(=O)C2CC2)n1 (stereo not drawn) [Example P149] | ≤ 100 nM |
| CCOc1cncc(-c2ccc(NC(=O)C(C)(C)c3ccnc(NS(=O)(=O)C4CC4)n3)cc2)n1 [Example P65] | ≤ 100 nM |
| CC(C)(C(=O)Nc1ccc(-c2cncc(OC3CC3)n2)cc1)c1ccnc(NS(=O)(=O)C2CC2)n1 [Example P66] | 100 to 1000 nM |
| CCOc1cncc(-c2ccc(NC(=O)C(C)(C)c3ccnc(NS(=O)(=O)C4CC4)n3)c(OC)c2)n1 [Example P49] | ≤ 100 nM |
| CC(C)(C(=O)Nc1ccc(-c2cccc(Cl)c2)cc1)c1ccnc(NS(=O)(=O)C2CC2)n1 [Example P61] | 1000 to 10000 nM |
| CC(C)Oc1cncc(-c2ccc(NC(=O)C(C)(C)c3ccnc(NS(=O)(=O)C4CC4)n3)cc2)n1 [Example P67] | ≤ 100 nM |
| CCOc1cncc(-c2ccc(NC(=O)C(C)(C)c3cccc(NS(=O)(=O)C4CC4)n3)cc2)c1 [Example P178] | 1000 to 10000 nM |
| CCOc1cncc(-c2ccc(NC(=O)C(C)(C)c3cc(C(F)(F)F)nc(NS(=O)(=O)C4CC4)n3)c(F)c2)n1 [Example P130] | 100 to 1000 nM |
| CC(C)(C(=O)Nc1ccc(-c2cncc(C(F)(F)F)n2)cc1)c1ccnc(NS(C)(=O)=O)n1 [Example P80] | 100 to 1000 nM |
| CCOc1cncc(-c2ccc(NC(=O)C(C)(CCOC)c3ccnc(NS(C)(=O)=O)n3)nc2)n1 (stereo not drawn) [Example P147] | 100 to 1000 nM |
| CCOc1cncc(-c2ccc(NC(=O)C(C)(C)c3cc(C)nc(NS(=O)(=O)C4CC4)n3)cc2)n1 [Example P134] | 100 to 1000 nM |
| O=C(Cc1ccnc(NS(=O)(=O)C2CC2)n1)Nc1ccc(-c2cncc(OCC(F)(F)F)n2)cc1 [Example P20] | ≤ 100 nM |
| CCOc1cncc(-c2ccc(NC(=O)C(F)(CC)c3ccnc(NS(C)(=O)=O)n3)nc2)n1 (single isomer, unassigned) [Example P165] | ≤ 100 nM |
| CC(C)(C(=O)Nc1ccc(-c2cncc(Cl)n2)cc1)c1cccc(NS(=O)(=O)C2CC2)n1 [Example P182] | 100 to 1000 nM |
| O=C(Cc1cccc(NS(=O)(=O)C2CC2)n1)Nc1ccc(-c2cncc(F)c2)cc1 [Example P169] | 100 to 1000 nM |
| CC(C)(C(=O)Nc1ccc(-c2cncc(Cl)c2)cc1)c1cccc(NS(=O)(=O)C2CC2)n1 [Example P176] | 1000 to 10000 nM |
| CCOc1cncc(-c2cnc(NC(=O)C(C)(C)c3ccnc(NS(C)(=O)=O)n3)c(F)c2)n1 [Example P75] | 100 to 1000 nM |
| CCS(=O)(=O)Nc1cncc(CC(=O)Nc2ccc(-c3cccnc3)cc2)n1 [Example P193] | 1000 to 10000 nM |
| COc1cncc(-c2ccc(NC(=O)Cc3cccc(NS(=O)(=O)C4CC4)n3)cc2)c1 [Example P170] | 100 to 1000 nM |
| CCOc1cncc(-c2ccc(NC(=O)C(c3ccnc(NS(=O)(=O)C4CC4)n3)C(C)C)nc2)n1 (stereo not drawn) [Example P154] | ≤ 100 nM |
| CCOc1cncc(-c2ccc(NC(=O)C3(c4ccnc(NS(=O)(=O)C5CC5)n4)CCOCC3)cc2)n1 [Example P137] | ≤ 100 nM |
| Cc1cncc(-c2ccc(NC(=O)C(C)(C)c3ccnc(NS(=O)(=O)C4CC4)n3)cc2)c1 [Example P54] | 100 to 1000 nM |
| CCOc1cncc(-c2cnc(NC(=O)C(C)(C)c3ccnc(NS(=O)(=O)C4CC4)n3)c(F)c2)n1 [Example P27] | ≤ 100 nM |
| CC(C)(C(=O)Nc1ccc(-c2cncc(OC(F)F)c2)cc1)c1ccnc(NS(=O)(=O)C2CC2)n1 [Example P55] | ≤ 100 nM |
| Cc1cc(-c2cncc(C(F)(F)F)n2)ccc1NC(=O)C(C)(C)c1ccnc(NS(=O)(=O)C2CC2)n1 [Example P43] | 100 to 1000 nM |

Source: patent US20230002352A1, “SULFONAMIDE DERIVATIVES AS CTPS1 INHIBITORS” (Step Pharma S.A.S., priority 2019, published 2023)
